{"source": "PubChem BioAssay (NCI)", "experiment_in_all_cases": "inhibition of tumour cell growth, NCI panel, 48 h", "key": {"SK-OV-3 ovarian": {"test_system": "SK-OV-3 ovarian"}, "ACHN renal": {"test_system": "ACHN renal"}, "SK-MEL-28 melanoma": {"test_system": "SK-MEL-28 melanoma"}, "OVCAR-5 ovarian": {"test_system": "OVCAR-5 ovarian"}, "OVCAR-4 ovarian": {"test_system": "OVCAR-4 ovarian"}, "TK-10 renal": {"test_system": "TK-10 renal"}, "CAKI-1 renal": {"test_system": "CAKI-1 renal"}, "HL-60(TB) leukemia": {"test_system": "HL-60(TB) leukemia"}, "SF-539 CNS": {"test_system": "SF-539 CNS"}, "NCI-H23 lung": {"test_system": "NCI-H23 lung"}, "A549 NSCLC": {"test_system": "A549 NSCLC"}, "MCF7 breast": {"test_system": "MCF7 breast"}, "OVCAR-3 ovarian": {"test_system": "OVCAR-3 ovarian"}, "CCRF-CEM leukemia": {"test_system": "CCRF-CEM leukemia"}, "U251 CNS": {"test_system": "U251 CNS"}, "HCT-15 colon": {"test_system": "HCT-15 colon"}, "IGROV1 ovarian": {"test_system": "IGROV1 ovarian"}, "UACC-257 melanoma": {"test_system": "UACC-257 melanoma"}, "SNB-19 CNS": {"test_system": "SNB-19 CNS"}, "EKVX NSCLC": {"test_system": "EKVX NSCLC"}, "MOLT-4 leukemia": {"test_system": "MOLT-4 leukemia"}, "PC-3 prostate": {"test_system": "PC-3 prostate"}, "MDA-MB-435": {"test_system": "MDA-MB-435"}, "SF-295 CNS": {"test_system": "SF-295 CNS"}, "NCI-H226 lung": {"test_system": "NCI-H226 lung"}, "HT29 colon": {"test_system": "HT29 colon"}, "M14 melanoma": {"test_system": "M14 melanoma"}, "KM12 colon": {"test_system": "KM12 colon"}, "SF-268 CNS": {"test_system": "SF-268 CNS"}, "HCT-116 colon": {"test_system": "HCT-116 colon"}, "T-47D breast": {"test_system": "T-47D breast"}, "786-0 renal": {"test_system": "786-0 renal"}, "HCC-2998 colon": {"test_system": "HCC-2998 colon"}, "MDA-N": {"test_system": "MDA-N"}, "MDA-MB-231 breast": {"test_system": "MDA-MB-231 breast"}, "LOX IMVI melanoma": {"test_system": "LOX IMVI melanoma"}, "SNB-75 CNS": {"test_system": "SNB-75 CNS"}, "HS 578T breast": {"test_system": "HS 578T breast"}, "NCI-H522 lung": {"test_system": "NCI-H522 lung"}, "SN12C renal": {"test_system": "SN12C renal"}, "K-562 leukemia": {"test_system": "K-562 leukemia"}, "BT-549 breast": {"test_system": "BT-549 breast"}, "RPMI-8226 leukemia": {"test_system": "RPMI-8226 leukemia"}, "OVCAR-8 ovarian": {"test_system": "OVCAR-8 ovarian"}, "SK-MEL-2 melanoma": {"test_system": "SK-MEL-2 melanoma"}, "NCI-H460 lung": {"test_system": "NCI-H460 lung"}, "HOP-62 NSCLC": {"test_system": "HOP-62 NSCLC"}, "RXF 393 renal": {"test_system": "RXF 393 renal"}, "UACC-62 melanoma": {"test_system": "UACC-62 melanoma"}, "DU-145 prostate": {"test_system": "DU-145 prostate"}, "MALME-3M melanoma": {"test_system": "MALME-3M melanoma"}, "NCI/ADR-RES ovarian": {"test_system": "NCI/ADR-RES ovarian"}, "A498 renal": {"test_system": "A498 renal"}, "SW-620 colon": {"test_system": "SW-620 colon"}, "COLO 205 colon": {"test_system": "COLO 205 colon"}}, "note": "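All cell lines were grown in 96-well plates and treated with compound for 48 hours. TGI marks complete inhibition of growth.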"}
{"smiles": "CCO/C(O)=C(/C(=N)N1CCCC1)C(=O)Nc1ccc(F)cc1", "values": [{"measurement": "TGI", "setting": "SK-OV-3 ovarian", "value": "> 100", "unit": "µM"}, {"measurement": "TGI", "setting": "ACHN renal", "value": "> 100", "unit": "µM"}, {"measurement": "TGI", "setting": "SK-MEL-28 melanoma", "value": "> 100", "unit": "µM"}, {"measurement": "TGI", "setting": "OVCAR-5 ovarian", "value": "> 100", "unit": "µM"}, {"measurement": "TGI", "setting": "OVCAR-4 ovarian", "value": "> 100", "unit": "µM"}, {"measurement": "TGI", "setting": "TK-10 renal", "value": "> 100", "unit": "µM"}, {"measurement": "TGI", "setting": "CAKI-1 renal", "value": "> 100", "unit": "µM"}, {"measurement": "TGI", "setting": "HL-60(TB) leukemia", "value": "> 100", "unit": "µM"}, {"measurement": "TGI", "setting": "SF-539 CNS", "value": "> 100", "unit": "µM"}, {"measurement": "TGI", "setting": "NCI-H23 lung", "value": 59.4, "unit": "µM"}, {"measurement": "TGI", "setting": "A549 NSCLC", "value": "> 100", "unit": "µM"}, {"measurement": "TGI", "setting": "MCF7 breast", "value": "> 100", "unit": "µM"}, {"measurement": "TGI", "setting": "OVCAR-3 ovarian", "value": "> 100", "unit": "µM"}, {"measurement": "TGI", "setting": "CCRF-CEM leukemia", "value": "> 100", "unit": "µM"}, {"measurement": "TGI", "setting": "U251 CNS", "value": "> 100", "unit": "µM"}, {"measurement": "TGI", "setting": "HCT-15 colon", "value": "> 100", "unit": "µM"}, {"measurement": "TGI", "setting": "IGROV1 ovarian", "value": "> 100", "unit": "µM"}, {"measurement": "TGI", "setting": "UACC-257 melanoma", "value": "> 100", "unit": "µM"}, {"measurement": "TGI", "setting": "SNB-19 CNS", "value": "> 100", "unit": "µM"}, {"measurement": "TGI", "setting": "EKVX NSCLC", "value": "> 100", "unit": "µM"}, {"measurement": "TGI", "setting": "MOLT-4 leukemia", "value": "> 100", "unit": "µM"}, {"measurement": "TGI", "setting": "PC-3 prostate", "value": "> 100", "unit": "µM"}, {"measurement": "TGI", "setting": "MDA-MB-435", "value": "> 100", "unit": "µM"}, {"measurement": "TGI", "setting": "SF-295 CNS", "value": "> 100", "unit": "µM"}, {"measurement": "TGI", "setting": "NCI-H226 lung", "value": "> 100", "unit": "µM"}, {"measurement": "TGI", "setting": "HT29 colon", "value": "> 100", "unit": "µM"}, {"measurement": "TGI", "setting": "M14 melanoma", "value": "> 100", "unit": "µM"}, {"measurement": "TGI", "setting": "KM12 colon", "value": "> 100", "unit": "µM"}, {"measurement": "TGI", "setting": "SF-268 CNS", "value": "> 100", "unit": "µM"}, {"measurement": "TGI", "setting": "HCT-116 colon", "value": "> 100", "unit": "µM"}, {"measurement": "TGI", "setting": "T-47D breast", "value": "> 100", "unit": "µM"}, {"measurement": "TGI", "setting": "786-0 renal", "value": "> 100", "unit": "µM"}, {"measurement": "TGI", "setting": "HCC-2998 colon", "value": "> 100", "unit": "µM"}, {"measurement": "TGI", "setting": "MDA-N", "value": "> 100", "unit": "µM"}, {"measurement": "TGI", "setting": "MDA-MB-231 breast", "value": "> 100", "unit": "µM"}, {"measurement": "TGI", "setting": "LOX IMVI melanoma", "value": "> 100", "unit": "µM"}, {"measurement": "TGI", "setting": "SNB-75 CNS", "value": "> 100", "unit": "µM"}, {"measurement": "TGI", "setting": "HS 578T breast", "value": "> 100", "unit": "µM"}, {"measurement": "TGI", "setting": "NCI-H522 lung", "value": "> 100", "unit": "µM"}, {"measurement": "TGI", "setting": "SN12C renal", "value": "> 100", "unit": "µM"}, {"measurement": "TGI", "setting": "K-562 leukemia", "value": "> 100", "unit": "µM"}, {"measurement": "TGI", "setting": "BT-549 breast", "value": "> 100", "unit": "µM"}, {"measurement": "TGI", "setting": "RPMI-8226 leukemia", "value": "> 100", "unit": "µM"}, {"measurement": "TGI", "setting": "OVCAR-8 ovarian", "value": "> 100", "unit": "µM"}, {"measurement": "TGI", "setting": "SK-MEL-2 melanoma", "value": "> 100", "unit": "µM"}, {"measurement": "TGI", "setting": "NCI-H460 lung", "value": "> 100", "unit": "µM"}, {"measurement": "TGI", "setting": "HOP-62 NSCLC", "value": "> 100", "unit": "µM"}, {"measurement": "TGI", "setting": "RXF 393 renal", "value": "> 100", "unit": "µM"}, {"measurement": "TGI", "setting": "UACC-62 melanoma", "value": "> 100", "unit": "µM"}, {"measurement": "TGI", "setting": "DU-145 prostate", "value": "> 100", "unit": "µM"}, {"measurement": "TGI", "setting": "MALME-3M melanoma", "value": "> 100", "unit": "µM"}, {"measurement": "TGI", "setting": "NCI/ADR-RES ovarian", "value": "> 100", "unit": "µM"}, {"measurement": "TGI", "setting": "A498 renal", "value": "> 100", "unit": "µM"}, {"measurement": "TGI", "setting": "SW-620 colon", "value": "> 100", "unit": "µM"}, {"measurement": "TGI", "setting": "COLO 205 colon", "value": "> 100", "unit": "µM"}]}
